These results are taken from patent US20090233307A1, “METHODS FOR DETECTION OF SINGLE STRAND BREAKS IN DNA” (The University of North Carolina at Chapel Hill, priority 2008, published 2009).

One data set has as its system isolated, genomic DNA. The experiment in a line: SSB formation at N7-methylguanine adducts, isolated DNA, NaOH or piperidine denaturation, AGE. Conditions: DNA + 1 mM MMS + 30 mM OTX 1 hour. How it is done: To visualize the conversion of MMS induced N7-methylguanine (N7-meG) adducts into SSBs, the AGE assay described above was modified with a piperidine treatment (Mattes et. al., Biochem. Biophys. Acta 868:71-76 (1986)). Equal amounts of DNA (25 μg) were incubated for 1 hour at 37° C. in the presence of 30 mM OTX (Aldrich) and 1 mM MMS or PBS in 50 mM HEPES buffer (pH 7). Treated DNA was washed and collected using microcon YM-3 centrifugal filter devices (Amicon Bioseparations). The treated DNA was then incubated with alkaline buffer (pH≧12.8) that contained either 100 mM NaOH or 1 M piperidine for 20 minutes at 37° C. This DNA was then washed and collected by centrifugal filter devices, and the concentrations determined by UV. DNA (3-5 μg) from each sample received loading dye and was loaded onto a 0.7% agarose gel prepared as previously described. Electrophoresis, neutralization, staining, and image analysis were performed as described above.
ALSs such as N7-methylguanine (N7-meG), the predominate lesion formed by monofunctional alkylating agents, are generated during MMS exposure (Wyatt et. al., Chem. Res. Toxicol. 19: 1580-1594 (2006)). In the absence of OTX, ALSs other than AP sites may contribute to SSBs detected during AGE. […]

The test system of data set [1] is DT40 cells. It counts as cell-based. Conditions: chicken, 1 mM. How it is done:
DT40 and Pol β null cells were seeded into 100 cm dishes and allowed to divide overnight to reach the density of 1×10^6 cells/mL. Cells were exposed to a continuous treatment of 1 mM methyl methanesulfonate (MMS; Aldrich) for up to 4 hours. Control cells received 1× phosphate buffered saline (PBS) for 0.5 hour. After incubation, cells were harvested, washed with chilled 1× PBS, pelleted, and stored at −80° C. until DNA isolation. Using this protocol, DT40 cells were also incubated in the absence of chemical to obtain a stock of untreated DNA.

In a further data set the test system is Pol β null cells. Put plainly: SSB repair through NAD(P)H depletion, Pol β null cells. It counts as cell-based, chicken. Conditions: 1 mM MMS for up to 4 hours, Pol β null cells. How it is done:
(§1) SSB repair capacity was determined by a real-time colorimetric assay that measures intracellular NAD(P)H levels (Tano et al., DNA Repair, 6, 869-875 (2007)). PARP-1 activation during SSB repair leads to NAD^+ consumption, which can be indirectly monitored through NAD(P)H depletion (Nakamura et al., Nucleic Acids Res., 31, e104 (2003)). Briefly, 5×10^3 cells/well were seeded into a 96-well plate. After a 30 minute incubation period, the cells were treated with 1 mM MMS quickly followed by the addition of a dye containing XTT (Sigma) and 1-methoxy PMS (Sigma). For up to 4 hours, the NAD(P)H-dependent conversion of the XTT tetrazolium salt to a yellow colored formazan dye was measured spectrophotometrically. Decreases in intracellular NAD(P)H levels were determined through comparison of values to those of the PBS control. Established methods for detecting SSBs have not been adequately characterized for pH effects on DNA structure and chemistry and also lack a high specificity for SSBs, primarily because of artifactual SSB formation. […] The accumulation of SSBs leads to PARP-1 over-activation and the consumption of NAD+, which is indirectly monitored in living cells through the measurement of intracellular NAD(P)H depletion using tetrazolium salts, such as XTT, during chemical exposure (Tano et al., DNA Repair, 6, 869-875 (2007)). […]

Data set [2] deals with DT40 cells. Put plainly: SSB repair through NAD(P)H depletion, DT40 cells. It counts as cell-based, chicken. The conditions noted are these: 1 mM MMS for up to 4 hours, DT40 cells. How it is done: as §1

Molecules are shown by their SMILES.

Turning to `COS(C)(=O)=O` [MMS, methyl methanesulfonate], the “amount of SSBs after NaOH induced DNA denaturation, MMS treated vs control DNA” value in the data set on isolated, genomic DNA (100 mM NaOH 20 minutes) is “no difference in the amount of SSBs”. Moreover, the “DNA migration after piperidine treatment” value in the data set on isolated, genomic DNA (1 M piperidine 20 minutes, vs PBS control) is reported as “notable increase in DNA migration”. For the same molecule, the “AP sites (ASB assay) compared to control” value in the data set with DT40 cells [1] is on record as “time-dependent, significant (p<0.01 for all time points, student t-test) increase in AP sites”. For the same molecule, the “intracellular NAD(P)H levels” value in the data set on Pol β null cells is reported as “time-dependent decrease but with more extensive depletion occurring as early as 30 minutes”; with DT40 cells [2], “time-dependent decrease in intracellular NAD(P)H levels”.
